Data reported in ChEMBL document CHEMBL3091447, “The effect of pyridyl substituents on the thermodynamics of porphyrin binding to G-quadruplex DNA” (Bioorg Med Chem, 2013).
Active and inactive are the calls of the source. No cut-off for these calls is given here.

Tests used:
Homo sapiens [1] = species: Homo sapiens; experiment: Binding affinity to Bcl-2 G-quadruplex DNA (unknown origin) at compound/DNA ratio 2:1 by CD spectral analysis
Homo sapiens [2] = species: Homo sapiens; experiment: Binding affinity to WT 27-mer Bcl-2 G-quadruplex DNA (unknown origin) at 40 uM by electrospray ionization mass spectra analysis
Homo sapiens [3] = species: Homo sapiens; experiment: Binding affinity to WT 27-mer Bcl-2 G-quadruplex DNA (unknown origin) at 5 uM by isothermal titration calorimetric assay
Homo sapiens [4] = species: Homo sapiens; experiment: Binding affinity to WT 27-mer Bcl-2 G-quadruplex DNA (unknown origin) at compound/DNA ratio 1 to 4 by CD spectral analysis

| SMILES | Activity (Homo sapiens [1]) | Activity (Homo sapiens [2]) | Activity (Homo sapiens [3]) | Activity (Homo sapiens [4]) |
| --- | --- | --- | --- | --- |
| C[n+]1ccc(-c2c3nc(c(-c4cc[n+](C)cc4)c4ccc([nH]4)c(-c4cc[n+](C)cc4)c4ccc([nH]4)c(-c4cc[n+](C)cc4)c4nc2C=C4)C=C3)cc1 | Active | – | – | – |
| C[n+]1ccc(-c2c3nc(cc4ccc(cc5nc(c(-c6cc[n+](C)cc6)c6ccc2[nH]6)C=C5)[nH]4)C=C3)cc1 | – | inactive | – | – |
| C[n+]1ccc(-c2c3nc(cc4ccc(cc5nc(cc6ccc2[nH]6)C=C5)[nH]4)C=C3)cc1 | – | inactive | – | – |
| C[n+]1ccc(-c2c3nc(cc4ccc([nH]4)c(-c4cc[n+](C)cc4)c4nc(cc5ccc2[nH]5)C=C4)C=C3)cc1 | Active | Active | Active | – |
| C[n+]1ccc(-c2c3nc(c(-c4cc[n+](C)cc4)c4ccc([nH]4)c(-c4cc[n+](C)cc4)c4nc(cc5ccc2[nH]5)C=C4)C=C3)cc1 | Active | Active | Active | Active |
